In patent US7408067B2, “Aza-cyclic compounds as modulators of acetylcholine receptors” (Merck + Co., Inc., priority 2002, dated 2008) one finds melting point data, which are given here for seven compounds.

The structures appear in SMILES notation. Counter-ions that a name gives are not always drawn.

In general, melting point refers to the temperature of the solid-liquid transition. In turn, `CN1CCC(Sc2cc3c(cc2Cl)[nH]c(=O)n3C)CC1` [Example 20, 5-Chloro-1-methyl-6-[(1-methyl-4-piperidinyl)sulfanyl]-1,3-dihydro-2H-benzimidazol-2-one] displayed a melting point of 210.2 to 211.9 °C.
The compound `CN1CCC(Sc2ccc3[nH]c(=O)n(C)c(=O)c3c2)CC1` [Example 21, 3-Methyl-6-[(1-methyl-4-piperidinyl)sulfanyl]-2,4(1H,3H)-quinazolinedione] gave a melting point of 200.8 to 202.6 °C.
`CN1CCC(Sc2ccc3[nH]c(=O)[nH]c3c2)CC1` [Example 16, 5-[(1-methyl-4-piperidinyl)sulfanyl]-1,3-dihydro-2H-benzimidazol-2-one] came in with a melting point of 213.8 to 214.7 °C.
For `CC(=O)Nc1ccc(SC2CCN(C)CC2)cc1` (as salt: salt) [Example 7, N-{4-[(1-methylpiperidin-4-yl)thio]phenyl}acetamide] the value was 199 to 201 °C; for `CN1CCC(Sc2ccc(N)cc2)CC1` (as salt: hydrochloride) [Example 5, 4-(1-methylpiperidin-4-yl)thiophenylamine], 96 to 98 °C; for `CN1CCC(Sc2ccc3[nH]c(=O)n(C)c3c2)CC1` [Example 18, 1-Methyl-6-[(1-methyl-4-piperidinyl)sulfanyl]-1,3-dihydro-2H-benzimidazol-2-one], 196.4 to 197.6 °C.
For `CN1CCC(Sc2ccc3[nH]c(=O)[nH]c(=O)c3c2)CC1` [Example 17, 6-[(1-methyl-4-piperidinyl)sulfanyl]-2,4(1H,3H)-quinazolinedione] the value was > 260 °C.
